# In patent US9925222B2, “Gut barrier dysfunction treatment and prevention” (ALBERT EINSTEIN COLLEGE OF MEDICINE OF YESHIVA UNIVERSITY, priority 2012, dated 2018):
# Tests used:
# Tnf-α mRNA expression = experiment: KDO2-lipid A gut mucosal endotoxemia model with oral IPA, Tnf-α qPCR in jejunum apical enterocytes; type: in vivo; conditions: KDO2 200 μg/mice, oral IPA 20 mg/kg
# Protocol: 2.0 μg of total RNA extracted from pooled apical enterocytes with TRIzolR (Invitrogen), were reverse transcribed with random hexamer primers and SuperScript™ III-RT enzyme (Invitrogen). Quantitative PCR (qPCR) reactions using TaqMan universal PCR master mix and TaqMan probes containing FAM as the 5′ reporter fluorochrome and tetramethylrhodamine (MGB) as the 3′ quencher fluorochrome, were performed in triplicate for each sample and analyzed on the ABI Prism 7900HT system. […]
# For indomethacin induced mouse jejunitis model, a protocol published by Ettarh and Carr was modified by using a single intraperitoneal dose of indomethacin to reduce the toxicity in Pxr^−/− mice (17). […] Weights of individual jejunum sections were measured for quantitation of enteropooling (intestinal weight/length in mg/cm). […]
# [1] = biological target: T1, aryl hydrocarbon receptor (AhR) (Homo sapiens, UniProt P35869); experiment: AhR activation
# T1 sequence (P35869 11-848): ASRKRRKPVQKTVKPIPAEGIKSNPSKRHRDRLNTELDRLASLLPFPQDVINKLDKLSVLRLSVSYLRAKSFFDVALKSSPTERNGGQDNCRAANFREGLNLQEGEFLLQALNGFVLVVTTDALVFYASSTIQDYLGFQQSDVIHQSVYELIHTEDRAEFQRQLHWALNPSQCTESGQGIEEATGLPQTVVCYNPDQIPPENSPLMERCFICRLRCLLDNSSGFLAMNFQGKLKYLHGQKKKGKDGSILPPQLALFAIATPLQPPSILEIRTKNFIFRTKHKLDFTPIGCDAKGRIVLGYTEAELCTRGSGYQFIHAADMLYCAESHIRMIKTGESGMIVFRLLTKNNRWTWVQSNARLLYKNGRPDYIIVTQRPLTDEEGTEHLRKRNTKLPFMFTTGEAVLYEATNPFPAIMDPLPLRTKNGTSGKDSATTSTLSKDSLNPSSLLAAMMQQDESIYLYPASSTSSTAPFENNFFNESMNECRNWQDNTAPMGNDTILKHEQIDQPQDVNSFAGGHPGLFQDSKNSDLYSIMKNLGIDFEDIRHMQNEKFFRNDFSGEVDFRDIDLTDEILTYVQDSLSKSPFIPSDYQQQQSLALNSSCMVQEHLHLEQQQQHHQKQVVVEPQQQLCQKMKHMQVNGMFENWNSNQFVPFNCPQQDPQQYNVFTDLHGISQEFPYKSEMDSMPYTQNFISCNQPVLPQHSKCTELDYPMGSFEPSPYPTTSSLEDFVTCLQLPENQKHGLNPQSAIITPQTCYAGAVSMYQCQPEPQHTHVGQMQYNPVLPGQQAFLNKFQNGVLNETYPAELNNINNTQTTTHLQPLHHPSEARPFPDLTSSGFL
structure (smiles),measurement,setting,value
"O=C(O)CCc1c[nH]c2ccccc12 [IPA, indole-3-propionic acid]",Decrease of epithelial Tnf mRNA expression,Tnf-α mRNA expression; Pxr+/+ mice,3.73 fold
same,Decrease of epithelial Tnf mRNA expression,Tnf-α mRNA expression; Pxr−/− mice,1.72 fold
same,Activation of AhR,[1],no activation
